Active and inactive are the calls of the source.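 Rule for the calls: active = compounds giving half or more protection of infected cells from virus-caused growth loss, again on retest; inactive = the rest.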

Consider 74 compounds from PubChem BioAssay AID179 (DTP/NCI, 2004).

The experiment deals with CEM cells HIV-1 protection, formazan growth assay. Description: NCI AIDS Antiviral Assay. The note with it: for IC50: measured here: growth of uninfected CEM cells. A digest of the protocol: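 CEM (human) cells, HIV-1 infected vs uninfected, 5-point dosing, formazan growth read-out. Retest threshold 50% protection.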

For `Cc1cc(N=O)cc(Cl)c1O`, the EC50 – broadly, the concentration that produces a half-maximal response – is above 200 µM and the IC50 (in general, the concentration at which inhibition is half-maximal) was 10.5 µM.

As to `CCCCc1c2c(nc3c1CCCC3=O)CCCC2`, the EC50 is above 195 µM and the IC50 was 28.8 µM. As for `O=C(NC1CCC[C@H]1OC(=O)c1ccccc1)c1ccccc1` (some centres not stated), the result was inactive. In the case of `CC(C)C(Sc1nc(-c2ccccc2)c(-c2ccccc2)[nH]1)C(=O)N/N=C/c1ccc([N+](=O)[O-])cc1` (configuration not stated), the EC50 was above 14.5 µM and the half-inhibitory concentration (IC50) is above 14.5 µM.

Take `N#Cc1c(N)c2c(c(-c3ccccc3)c1-c1ccccc1)C(=O)N(N)C2=O`: the EC50 is above 200 µM and the half-inhibitory concentration (IC50) was 117 µM. On the same counts, the results for `NNS(=O)(=O)c1ccc(/C=C2\NC(=O)NC2=O)cc1` are above 200 µM and above 200 µM. On the same counts, the results for `CNc1nnc(CCCCCCCCc2nnc(NC)o2)o1` are above 200 µM and 11.5 µM. As for `COc1cccc(OC)c1/C=C1\OC(=O)c2cccc(OC)c21`, the EC50 is above 20 µM and the IC50 turned out to be 1.17 µM. On to `Cc1ccc(NC(=S)Nc2c(C)n(C)n(-c3ccccc3)c2=O)cc1`, for which the EC50 is above 200 µM and the IC50 was above 200 µM. Take `NC(=Nc1ccc(O)cc1)S(=O)(=O)O`: the EC50 was 63.1 µM and the IC50 amounted to 97.7 µM.

Turning to `CC(C)(C)c1cc2c(c(C(C)(C)C)c1)OC(C1Nc3cc(C(C)(C)C)cc(C(C)(C)C)c3O1)N2` (configuration not stated), the EC50 is above 100 µM and the IC50 came out at 21.4 µM. The corresponding values for `CCN1C(=O)N(C)C(O)c2c1nc1ccccn1c2=O` (configuration not stated) are above 182 µM and 11.5 µM.

For `c1ccc2c(c1)nnn1c3ncccc3nc21`, the EC50 was above 58.9 µM and the IC50 is 23.4 µM.

In the case of `Cc1ccc(S(=O)(=O)N/N=C2/CCCOC2)cc1`, the EC50 is above 200 µM and the IC50 was 138 µM.

With `CNC=O`, the EC50 is above 200 µM and the 50% inhibitory concentration (IC50) was above 200 µM. As for `c1ccc2c(c1)nnn2CNc1ccc(N2CCCCC2)cc1`, the EC50 is above 200 µM and the IC50 was found to be 51.3 µM. The corresponding values for `CCCCc1c(N(C)C)c(OC(C)=O)c(-c2cn(C)c3ccccc23)oc1=O` are above 200 µM and 31.6 µM. In the case of `COc1ccc2c3c(n(Cc4ccccc4)c(=O)c2c1)-c1cc(OC)c(OC)cc1C3C` (configuration not stated), the EC50 is above 6.31 µM and the IC50 was above 6.31 µM. As for `O=C(NCCCCl)c1c(O)c2ccccc2[nH]c1=O`, the EC50 is above 200 µM and the IC50 was 81.3 µM. The corresponding values for `CC1=Nc2ccccc2SC2(C1)C(C1COC(C)(C)O1)OC1OC(C)(C)OC12` (configuration not stated) are above 74.1 µM and 63.1 µM. `O=C(/C=C/c1cccs1)c1ccc([N+](=O)[O-])cc1`: the EC50 is above 200 µM.

`COc1c(Br)cc(Br)c(OC)c1-c1[nH]c(Br)c(Br)c1Br`: the EC50 was above 16.6 µM and the IC50 is above 16.6 µM.

Turning to `C/C(=N/NC(=S)N1CCCCCC1)c1ccccc1O`, the EC50 is above 200 µM and the IC50 worked out at 4.27 µM. As to `CCOC(=O)[C@]12C(=C(c3ccccc3)O[C@H]3C=CCC[C@H]31)C(=O)C(=O)N2c1ccccc1`, the EC50 was above 200 µM and the IC50 was found to be 75.9 µM. The corresponding values for `Cc1ccccc1-n1c(=O)c2ncn(CCCl)c2n(-c2ccccc2C)c1=S` are above 200 µM and 102 µM. As for `O=C1C[C@@H]2[C@@H](C=CC23CC3)N1O`, the EC50 was above 1510 µM and the IC50 is above 1510 µM. As to `Clc1nc(Cl)c2sc(=[Se])sc2n1`, the EC50 was above 200 µM and the IC50 was determined as 8.51 µM. With `OCCN(CCO)c1cc(Cl)c(Cl)cc1Cl`, the EC50 is above 200 µM and the IC50 was determined as 35.5 µM.

For `CCCCc1ccc(Nc2nc(Cl)c3ccn(C4CC(Oc5ccc(C)cc5)C(COc5ccc(C)cc5)O4)c3n2)cc1` (configuration not stated), the EC50 is above 200 µM and the 50% inhibitory concentration (IC50) was above 200 µM. As for `CC1(C)CC(C#Cc2ccccc2)CC(C)(C)N1O`, the EC50 is above 200 µM and the IC50 is 34.7 µM. On the same counts, the results for `Cc1cc(C)n(-c2nc3ccccc3c(=O)n2-c2ccccc2)n1` are above 200 µM and above 200 µM. On the same counts, the results for `CC[C@]1(Cc2ccc(OC)c(OC)c2)C=[N+]([O-])O[C@H](OC2CCCC2(c2ccccc2)c2ccccc2)[C@@H]1OC(=O)c1ccccc1` (some centres not stated) are above 200 µM and 1.07 µM.

In the case of `C[C@]12CC[C@H](CC=C(c3cc(Cl)c(O)c(C(=O)O)c3)c3cc(Cl)c(O)c(C(=O)O)c3)C[C@@H]1CC[C@@H]1[C@@H]2CC[C@]2(C)[C@@H](CC=C(c3cc(Cl)c(O)c(C(=O)O)c3)c3cc(Cl)c(O)c(C(=O)O)c3)CC[C@@H]12`, the EC50 was 28.8 µM and the IC50 stood at 45.7 µM. Consider `CC(C)=NNc1snnc1C(N)=O`, for which the EC50 was above 200 µM and the IC50 is above 200 µM.

`CN1CCCC(CNC23CC4CC(CC(C4)C2)C3)C1` (configuration not stated): the EC50 is above 501 µM and the IC50 was above 501 µM. Take `C=C(CC)C[C@@H]1C[C@]2(C(=O)OC)c3[nH]c4ccccc4c3CCN2C1=O`: the EC50 was above 200 µM and the IC50 was 36.3 µM.

For `OCCN1OCCCC1c1ccccc1` (configuration not stated), the EC50 is above 1200 µM and the IC50 was above 1200 µM. As for `Cc1ccc([N+](=O)[O-])c2c(NCCC[N+](C)(C)[O-])ccnc12`, the EC50 is above 200 µM and the IC50 is 28.8 µM. `Cc1ccc2c(c1)-c1c3c(nn1-c1ccccc1)-c1ccccc1SC3O2` (configuration not stated): the EC50 was above 3.89 µM and the IC50 is above 3.89 µM. Consider `COC(=O)/C(C#N)=C(\N)c1c(C)c2ccccc2oc1=N`, for which the EC50 is above 200 µM and the IC50 was above 200 µM.

For `C(=N\NC1=NCCCCN1)/c1ccc2ccccc2c1`, the EC50 is above 200 µM and the IC50 is 33.1 µM.

Regarding `O=c1[nH]c(Nc2ccc(F)c(Cl)c2)nc2nc[nH]c12`, the EC50 was above 200 µM and the IC50 is above 200 µM. As for `O=[N+]([O-])c1ccc(CCc2ccc([N+](=O)[O-])cc2S(=O)(=O)O)c(S(=O)(=O)O)c1`, the outcome was inactive. `CN(c1ccc(C(=O)c2ccc(N(C)S(C)(=O)=O)cc2)cc1)S(C)(=O)=O`: the EC50 was above 25.1 µM and the half-inhibitory concentration (IC50) is above 25.1 µM.

For the compound `c1cc2nnc1SCCCSc1ccc(nn1)SCCCSc1ccc(nn1)SCCCS2`, the EC50 was above 100 µM and the IC50 is above 100 µM.

Take `CNC(=O)N(C)COC`: the EC50 is above 759 µM and the 50% inhibitory concentration (IC50) stood at 115 µM. The corresponding values for `CCOC(=O)c1cc(N/N=C2/CCCNC2=O)c[nH]1` are above 200 µM and 41.7 µM. The corresponding values for `CC(=O)Nc1ccc2c(c1)C(c1ccccc1)=NCC(=O)N2` are above 200 µM and 55 µM.

Take `C=C1SC(=Nc2c(C)cccc2C)N(c2nc(Cl)nc(Cl)n2)C12CCCCC2`: the EC50 was above 200 µM and the 50% inhibitory concentration (IC50) worked out at 162 µM. The corresponding values for `CCCCCC(=Nc1n[nH]nc1C(N)=O)OCC` are above 200 µM and above 200 µM.

Consider `c1cc(CSSCc2ccncc2)ccn1`, for which the EC50 is above 200 µM and the IC50 came to 0.891 µM. Regarding `CCOC(=O)C(C(=S)SC)c1nn2c(=O)cc(C)nc2s1` (configuration not stated), the EC50 is above 200 µM and the IC50 was 19.1 µM. For `Nc1c(C(=O)O)sc2ncccc12`, the EC50 is 141 µM and the IC50 was 219 µM.

With `Cn1c(=O)oc2cc(Br)ccc21`, the EC50 was above 200 µM and the IC50 was above 200 µM.

As to `CCCCCCCCSC(=O)n1cc(F)c(=O)[nH]c1=O`, the EC50 was above 61.7 µM and the IC50 was above 61.7 µM. As for `CN1C/C(=C\c2ccncc2)C(=O)/C(=C/c2ccncc2)C1`, the EC50 was 52.5 µM and the IC50 was above 200 µM. On the same counts, the results for `Cc1nc(C)c(N2CCN(S(N)(=O)=O)CC2)c(=O)[nH]1` are above 200 µM and above 200 µM. The corresponding values for `CCOC(=O)C1c2[nH]c3ccccc3c2CCN1C(=O)c1ccc(OC)o1` (configuration not stated) are above 51.3 µM and 38.9 µM. On the same counts, the results for `COc1cc(/C=C2\CC/C(=C\c3ccc(O)c(OC)c3)C2=O)ccc1O` are above 200 µM and 1.48 µM.

`CCCCCC1C2C(=O)NC(=O)C1C(=O)NC2=O` (configuration not stated): the EC50 was above 1000 µM and the IC50 is above 1000 µM.

Regarding `Cc1[nH]c2ccccc2c1-c1n[nH]c(=O)c2ccccc12`, the result was inactive. On to `CC(=O)OCC1OC(Nc2[nH]c(=O)n(C)c(=O)c2N=O)C(OC(C)=O)C(OC(C)=O)C1OC(C)=O` (configuration not stated), for which the EC50 is above 200 µM and the IC50 is above 200 µM. Turning to `O=C1c2ccccc2C(=O)c2c1cc(S(=O)(=O)O)c(O)c2O`, the result was inactive. For the compound `CC1CCC2C1(C)CCC1C2(C)CCC2(C)C3CC(C)(C)CCC3(C)CCC12C` (configuration not stated), the EC50 is 93.3 µM and the IC50 was above 100 µM. `COC(=N)C(C)C`: the EC50 was above 1820 µM and the IC50 was above 1820 µM. On to `O=C(CCC(=O)Nc1ccc(Cl)c(Cl)c1)CC(=O)c1ccc(F)cc1`, for which the EC50 was above 67.6 µM and the IC50 is above 67.6 µM. As to `O=Cc1c(O)ccc2ccc(O)c(-c3c(O)ccc4ccc(O)cc34)c12`, the EC50 is above 363 µM and the IC50 turned out to be 20.9 µM. On the same counts, the results for `O=c1/c(=C/c2ccc3c(c2)OCO3)sc2nnc(Cc3ccccc3)n12` are above 20 µM and above 20 µM. On the same counts, the results for `COC(=O)c1ccccc1CC1Cc2c(C)ccc(C)c2C1=O` (configuration not stated) are above 200 µM and 34.7 µM. On the same counts, the results for `CC1(C)CCCC2(C)C3C(O)CC2(C)C(O)C31` (configuration not stated) are above 282 µM and above 282 µM.

On to `CCN(CC)c1ccc(/C=C/c2n(-c3ccccc3)c3ccccc3[n+]2C)cc1`, for which the EC50 is above 2 µM and the IC50 was found to be 0.115 µM. For the compound `COc1ccc2cc(C(=O)c3ccccc3C(=O)O)ccc2c1`, the outcome was inactive.

With `CC(=O)NC(NNC(NC(C)=O)(c1ccccc1)c1ccccc1)(c1ccccc1)c1ccccc1`, the EC50 was above 200 µM and the IC50 was above 200 µM. `Cc1cc(S(=O)(=O)Nc2n[nH]c(N)n2)c(S)cc1Cl`: the EC50 was above 200 µM and the IC50 is above 200 µM.
